The record followed here is US20070110813A1, “Polycation-polyanion complexes, compositions and methods of use thereof” (priority 2005, published 2007).

“Also recorded” adds a separate entry of the source. Read-outs that look alike come from different tables or passages of the source.

The subject of data set [1] is rats. Briefly: Lung volume reduction in rats, fibrin gel, lungs and kidneys evaluated after 1 week. The class given is in vivo. The conditions noted are these: 200 U/mL thrombin. How it is done: (§1) Three rats were treated with 5 mg/mL poly(Lys, Glu) to evaluate whether the copolymer could be used to modulate local and/or systemic toxicity. Treatments contained 28.6 mg/mL fibrinogen polymerized with 200 U/mL thrombin. All rats were anesthetized and intubated orotracheally. A dual lumen catheter was placed into a target site in the lung with bronchoscopic guidance. The reagents were injected into the lung and the catheter was removed. Each animal was allowed to recover from anesthesia, and returned to its cage. After 1 week, all animals were euthanized. The extent of pleural scarring was assessed prior to lung removal from the chest cavity. The lungs were then removed en bloc, fully inflated, and evaluated visually to assess the extent of local parenchymal inflammation and scarring produced by treatment. The kidneys were also harvested and evaluated for the presence of cortical lesions and infarctions which can develop as a consequence of systemic toxicity following polycation adminstration.
as §1, with “4” for “Three”, “2.5” for “5”, “polyomithine and 3 were treated with 2.5 mg/mL polyomithine precipitated with 2.5 mg/mL chondroitin sulfate” for “poly(Lys, Glu)”, “precipitation” for “the copolymer”, “administration.” for “adminstration.”

Data set [2] relates to sheep lungs. The class given is in vivo. How it is done:
Polylysine was delivered to 12 pulmonary subsegments via a bronchoscope in a fibrin gel matrix at 100 mg, 30 mg and 10 mg per subsegment (groups 1, 2 and 3 in FIG. 1). The molecular weight of the polylysine used was 20,000-80,000 Da with an average molecular weight of 55,000 Da. A total of 10 sheep were thus treated.
The characteristic lesion caused by polylysine is renal infarction, consistent with what has been reported in the literature for polycationic injury. In the animals tested with baseline normal renal function, renal damage resulting from cationic injury remains subclinical. […] Thus, these clinical pathology tests were not sufficiently sensitive to detect polycationic renal injury resulting from polylysine. Polycationic renal toxicity following pulmonary treatment is initiated and can be detected only at necropsy within days of treatment. […] The characteristic acute lesion appeared to be renal infarction with associated hemorrhage. Lesions occurred within days (3-7 days) of cationic exposure. Necropsy findings are the most sensitive markers of toxicity.
4 sheep were treated at 12 pulmonary subsegments each with a fibrin gel containing 100 mg chondroitin sulfate (Group 5 in FIG. 1). 2 animals were sacrificed at 8 days and the remaining 2 animals were sacrificed at 4 weeks. […] However, pulmonary responses in these animals were minimal, indicating poor efficacy.
In a series of 4 sheep experiments (Group 6 in FIG. 1), in-situ precipitation of chondroitin sulfate and polylysine solutions was achieved as they exit a dual lumen catheter. Chondroitin sulfate was added to a fibrinogen solution to a final concentration of 20 mg/mL, while polylysine was added to a thrombin solution to a final concentration of 20 mg/mL. Both solutions were 5 mL and were injected through a dual lumen catheter into subsegments of sheep lungs for a total of 10 mL per subsegment.
In a total of 4 sheep (Group 7 in FIG. 1), use of systemic heparin to complex polylysine in the circulation and reduce or prevent renal toxicity was attempted.
Using this precipitation methodology, polylysine related renal toxicity was prevented over a broad polylysine concentration range from 1 mg/mL to 10 mg/mL at chondroitin sulfate concentration of 1 to 5 mg/mL (Groups 9 to 13 in FIG. 1).
Lung volume reduction treatment was performed in 8 consecutive animals at 84 subseguential sites using a formulation containing 13 mg/mL of human fibrinogen, 5 mg/mL of sodium chondroitin sulfate, 5 mg/mL of poly-L-lysine, and polymerized in situ with 1000 U activated human thrombin (Group 13 in FIG. 1).

Setting [3] is: 5 mg/mL poly(Lys, Glu) in 28.6 mg/mL fibrinogen.
The mark [4] stands for this setting: 100 mg/treatment in fibrin gel, 12 pulmonary subsegments (group 1).
The mark [5] stands for this setting: 10 and 30 mg/treatment in fibrin gel (groups 2 and 3).
[6] abbreviates: 2.5 mg/mL polyornithine in 28.6 mg/mL fibrinogen.

For poly(Lys, Glu) [copolymer], in data set [1] (setting [3]), the “local pulmonary lesions / efficacy as lung volume reduction agent” value is “no significant local pulmonary lesions; also recorded: failed to demonstrate efficacy” and the “systemic toxicity, manifest as renal lesions” value was “no incidence of systemic toxicity; also recorded: did not show any systemic toxicity”.
On to poly-L-lysine [polylysine], for which, in data set [2] (setting [4]), the lung injury entry is given as “severe lung injury”; the renal toxicity result was “renal toxicity manifest as nephropathy and infarction”. Also, in data set [2] (setting [5]), the pulmonary responses entry is listed as “acceptable pulmonary responses” and the renal toxicity entry is given as “associated with renal toxicity”. Moreover, the “serum BUN or creatinine, urine analysis, urine protein-to-creatinine ratio” value in data set [2] (animals with renal lesions at necropsy) was “No abnormalities”. Moreover, the “time of occurrence of renal lesions after cationic exposure” value in data set [2] (renal infarction with associated hemorrhage) fell in the range of 3 to 7 days.
Take polyornithine: in data set [1] (setting [6]), the local toxicity result is listed as “significant local toxicity” and the systemic toxicity result is “systemic toxicity, manifest as renal lesions”.
Turning to heparin, the “prevention of polylysine renal lesions” value in data set [2] (systemic heparin to complex polylysine in the circulation, 4 sheep (Group 7)) is given as “did not prevent renal lesions”.
As to chondroitin sulfate, the pulmonary responses entry in data set [2] (fibrin gel containing 100 mg chondroitin sulfate, 12 subsegments (Group 5)) was “minimal”.
